# Assay results reported in ChEMBL document CHEMBL1137034, “Synthesis of 1H-pyridin-2-one derivatives as potent and selective farnesyltransferase inhibitors” (Bioorg Med Chem Lett, 2004).
# Biological target: Protein farnesyltransferase (Mus musculus, UniProt Q61239+Q8K2I1)
# Experiment: Reduced farnesylation of H-ras transformed NIH3T3 cells
# Format: functional, cell-based
# Conditions: not given
row,Compound,EC50 [nM]
1,Cn1cncc1C(OCc1cn(Cc2cccc(F)c2)c(=O)cc1-c1cccc(Cl)c1)c1ccc(C#N)cc1 (configuration not stated),15
2,Cn1cncc1C(OCc1c(-c2cc(Cl)cc(Cl)c2)cc(C#N)n(C)c1=O)c1ccc(C#N)cc1 (configuration not stated),15
3,Cn1cncc1C(OCc1c(-c2cccc(Cl)c2)cc(C#N)n(C)c1=O)c1ccc(C#N)cc1 (configuration not stated),11.4

# Results, then the compound that gave them:
row,EC50 [nM],Compound
1,9,Cn1cncc1C(OCc1cn(Cc2cccc(C#N)c2)c(=O)cc1-c1cccc(Cl)c1)c1ccc(C#N)cc1 (configuration not stated)
2,10,Cn1cncc1C(OCc1cn(Cc2cccc(Cl)c2)c(=O)cc1-c1cccc(Cl)c1)c1ccc(C#N)cc1 (configuration not stated)
3,0.5,Cn1cncc1C(OCc1c(-c2cccc(Cl)c2)cc(C#N)c(=O)n1C)c1ccc(C#N)cc1 (configuration not stated)
4,5.2,Cn1cncc1C(OCc1ccc(C#N)cc1-c1cccc(Cl)c1)c1ccc(C#N)cc1 (configuration not stated)

# System: not listed separately
# Experiment: Oral bioavailability in dog
# Format: ADME, organism-based, Canis lupus familiaris
# Conditions: in vivo
row,bioavailability [%],Compound
1,47,Cn1cncc1C(OCc1cn(Cc2cccc(C#N)c2)c(=O)cc1-c1cccc(Cl)c1)c1ccc(C#N)cc1 (configuration not stated)

# Biological target: T1, Geranylgeranyl transferase type I (Bos taurus, UniProt P29702+Q5EAD5)
# Experiment: Inhibition of [3H]FPP incorporation into biotin-linked K-ras decapeptide (CVLL) by bovine geranylgeranyltransferase
# Format: protein-complex assay
# Conditions: not given
row,IC50 [nM],Compound
1,> 10000,Cn1cncc1C(OCc1cn(Cc2ccc(C#N)cc2)c(=O)cc1-c1cccc(Cl)c1)c1ccc(C#N)cc1 (configuration not stated)

# System: not listed separately
# Experiment: Half life in dog
# Format: ADME, Canis lupus familiaris
# Conditions: in vivo
row,half-life [h],Compound
1,1.4,Cn1cncc1C(OCc1cn(Cc2cccc(C#N)c2)c(=O)cc1-c1cccc(Cl)c1)c1ccc(C#N)cc1 (configuration not stated)

# System: not listed separately
# Experiment: Plasma clearance was determined
# Format: ADME, organism-based, Canis lupus familiaris
# Conditions: dog, in vivo
row,Plasma clearance [mL/min/kg],Compound
1,8.83,Cn1cncc1C(OCc1cn(Cc2cccc(C#N)c2)c(=O)cc1-c1cccc(Cl)c1)c1ccc(C#N)cc1 (configuration not stated)

# Biological target: not listed separately
# Experiment: Inhibition of [3H]-FPP incorporation into biotin-linked K-ras decapeptide (CVIM) by bovine farnesyltransferase
# Design: species or system Bos taurus
# Conditions: not given
row,IC50 [nM],Compound
1,5,Cn1cncc1C(OCc1cn(Cc2ccc(C#N)cc2)c(=O)cc1-c1cccc(Cl)c1)c1ccc(C#N)cc1 (configuration not stated)

# Biological target: T1, Geranylgeranyl transferase type I
# Experiment: inhibitory concentration needed to reduce the bovine GGTase-catalyzed incorporation of […] into a biotin-linked K-ras (B) decapeptide
# Format: protein-complex assay
# Conditions: not given
row,Compound,IC50 [nM]
1,Cn1cncc1C(OCc1cn(Cc2cccc(F)c2)c(=O)cc1-c1cccc(Cl)c1)c1ccc(C#N)cc1 (configuration not stated),2000
2,Cn1cncc1C(OCc1c(-c2cc(Cl)cc(Cl)c2)cc(C#N)n(C)c1=O)c1ccc(C#N)cc1 (configuration not stated),9400
3,Cn1cncc1C(OCc1c(-c2cccc(C(F)(F)F)c2)cc(C#N)n(C)c1=O)c1ccc(C#N)cc1 (configuration not stated),3600
4,Cn1cncc1C(OCc1cn(CC#N)c(=O)cc1-c1cccc(Cl)c1)c1ccc(C#N)cc1 (configuration not stated),> 10000
5,Cn1cncc1C(OCc1cn(C)c(=O)cc1-c1cccc(Cl)c1)c1ccc(C#N)cc1 (configuration not stated),> 10000
6,Cn1cncc1C(OCc1c(-c2cccc(Cl)c2)cc(C#N)n(C)c1=O)c1ccc(C#N)cc1 (configuration not stated),> 10000

# Results, then the compound that gave them:
row,IC50 [nM],Compound
1,7700,Cn1cncc1C(OCc1cn(Cc2ccccc2C#N)c(=O)cc1-c1cccc(Cl)c1)c1ccc(C#N)cc1 (configuration not stated)
2,6600,Cn1cncc1C(OCc1cn(Cc2cccnc2Br)c(=O)cc1-c1cccc(Cl)c1)c1ccc(C#N)cc1 (configuration not stated)
3,6200,Cn1cncc1C(OCc1c[nH]c(=O)cc1-c1cccc(Cl)c1)c1ccc(C#N)cc1 (configuration not stated)
4,1900,Cn1cncc1C(OCc1cn(Cc2cccc(C#N)c2)c(=O)cc1-c1cccc(Cl)c1)c1ccc(C#N)cc1 (configuration not stated)
5,1200,Cn1cncc1C(OCc1cn(Cc2cccc(Cl)c2)c(=O)cc1-c1cccc(Cl)c1)c1ccc(C#N)cc1 (configuration not stated)
6,2.7,Cn1cncc1C(OCc1c(-c2cccc(Cl)c2)cc(C#N)c(=O)n1C)c1ccc(C#N)cc1 (configuration not stated)
7,1.3,Cn1cncc1C(OCc1ccc(C#N)cc1-c1cccc(Cl)c1)c1ccc(C#N)cc1 (configuration not stated)

# Biological target: not listed separately
# Experiment: Inhibition of [3H]FPP incorporation into biotin-linked K-ras decapeptide (CVIM) by bovine farnesyltransferase
# Design: species or system Bos taurus
# Conditions: not given
row,Compound,IC50 [nM]
1,Cn1cncc1C(OCc1cn(Cc2cccc(F)c2)c(=O)cc1-c1cccc(Cl)c1)c1ccc(C#N)cc1 (configuration not stated),2.1
2,Cn1cncc1C(OCc1c(-c2cc(Cl)cc(Cl)c2)cc(C#N)n(C)c1=O)c1ccc(C#N)cc1 (configuration not stated),1.1
3,Cn1cncc1C(OCc1c(-c2cccc(C(F)(F)F)c2)cc(C#N)n(C)c1=O)c1ccc(C#N)cc1 (configuration not stated),7.5
4,Cn1cncc1C(OCc1cn(CC#N)c(=O)cc1-c1cccc(Cl)c1)c1ccc(C#N)cc1 (configuration not stated),19
5,Cn1cncc1C(OCc1cn(C)c(=O)cc1-c1cccc(Cl)c1)c1ccc(C#N)cc1 (configuration not stated),12
6,Cn1cncc1C(OCc1c(-c2cccc(Cl)c2)cc(C#N)n(C)c1=O)c1ccc(C#N)cc1 (configuration not stated),1.2

# More lines, now with the values ahead:
row,IC50 [nM],Compound
1,2.3,Cn1cncc1C(OCc1cn(Cc2ccccc2C#N)c(=O)cc1-c1cccc(Cl)c1)c1ccc(C#N)cc1 (configuration not stated)
2,3,Cn1cncc1C(OCc1cn(Cc2cccnc2Br)c(=O)cc1-c1cccc(Cl)c1)c1ccc(C#N)cc1 (configuration not stated)
3,1.3,Cn1cncc1C(OCc1cn(Cc2cccc(C#N)c2)c(=O)cc1-c1cccc(Cl)c1)c1ccc(C#N)cc1 (configuration not stated)
4,2.1,Cn1cncc1C(OCc1cn(Cc2cccc(Cl)c2)c(=O)cc1-c1cccc(Cl)c1)c1ccc(C#N)cc1 (configuration not stated)
5,0.44,Cn1cncc1C(OCc1c(-c2cccc(Cl)c2)cc(C#N)c(=O)n1C)c1ccc(C#N)cc1 (configuration not stated)
6,0.87,Cn1cncc1C(OCc1ccc(C#N)cc1-c1cccc(Cl)c1)c1ccc(C#N)cc1 (configuration not stated)
